Entries after “also recorded” stand apart in the source; their conditions may differ.
What was measured:
[1] = tested on: Rpd3L HDAC binary PPIs other than Sin3-Ume6; test: GPCA binary PPI inhibition, other Rpd3L HDAC PPIs; format: cell-based, S. cerevisiae; settings: 10 μM
Description: GPCA (N1-N2 version) was implemented as reported in [Choi et al 2019]. HEK293T cells were seeded at 6×10^4 cells per well in 96-well, flat-bottom, cell culture microplates (Greiner Bio-One, #655083), and cultured in Dulbecco's modified Eagle's medium (DMEM) supplemented with 10% fetal calf serum at 37° C. and 5% CO2. Twenty-four hours later, cells were transfected with 100 ng of each GPCA plasmid (GPCA-N1 and GPCA-N2) using linear polyethylenimine (PEI) to co-express the protein pairs fused with complementary luciferase fragments, Luc1 and Luc2. The DNA/PEI ratio used for transfection was 1:3 (mass:mass). […] Luminescence was measured by auto-injecting 50 μL Renilla luciferase substrate (Renilla Luciferase Assay system, catalog No. E2820, Promega) per well and integrating light output for 4 s using a TriStar luminometer (Berthold).
The ability of compounds to inhibit binary PPIs in the Sin3/Rpd3L HDAC complex was tested by GPCA in a high-throughput screening format. […] The luminescence signal for each PPI was measured by averaging the different DMSO replicates, and calculating the standard deviation of DMSO values for each interaction. […] For each interaction, a particular compound was scored as a PPI inhibitor when it decreased its luminescence signal by at least three standard deviations compared to the corresponding averaged DMSO value. […]

[2] = Tolerability of chronic treatment in mice; format: in vivo; settings: 50 mg/kg I.P. daily for 10 days
Description: For the pilot RT-qPCR experiment, in addition to the vehicle condition (ethanol 100%/kolliphor/saline 0.9% in a proportion of 1:1:14.4; for the 50 mg/kg dose, 14 μL NaOH 1M were also added), three doses (mg/kg) of E6R were tested: 5, 15, and 50, with 4 (vehicle) or 3 (E6R) animals per group. A dose of 50 mg/kg was picked to conduct further experiments. For the RNA-Seq experiment, E6R was dissolved in a vehicle solution containing saline 55% v/v, DMSO 34% v/v, ethanol 5% v/v, kolliphor EL (Sigma-Aldrich, MO, USA) 5% v/v, NaOH 1M 1% v/v. The vehicle group received the same solution. Animals were injected daily by intraperitoneal (I.P.) injection with 5 μL/g of the solution (50 mg/kg of the drug or vehicle) at 11 am for 10 days. Animal wellness was verified by daily visual inspection and weighing. […] On the 11th day, animals were sacrificed by bleeding via heart puncture under carbon dioxide anesthesia. The brains were quickly removed and the bilateral frontal cortex (bregma 1.90 to 1.40 mm) was dissected followed by total RNA extraction. The spleens were also collected in the pilot RT-qPCR experiments.

human SIN3B PAH2 domain = target: T1, human SIN3B PAH2 domain (Homo sapiens, UniProt O75182); test: Ligand-detected NMR, human SIN3B PAH2; format: binding, H. sapiens; settings: 300 μM compound, 10 μM protein
T1 construct: Residues 155-241 of human SIN3B (PAH2 domain) were inserted into the pMALC2XE vector for NMR experiments; made in house; host or cells: E. coli BL21 (DE3)
T1 sequence (O75182 155-241): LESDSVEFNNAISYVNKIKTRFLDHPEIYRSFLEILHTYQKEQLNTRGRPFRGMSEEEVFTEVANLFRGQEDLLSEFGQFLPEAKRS
Description: Ligand-detected NMR experiments: all results were acquired using a 3 mm tube at 25° C. on a Bruker 600 MHz Avance II system equipped with a CPPTCI cryoprobe (Bruker BioSpin Corp.). In all experiments, the concentration of E6R was fixed at 300 μM (from a stock of 25 mM in deuterated DMSO) and the concentration of the protein at 10 μM. The volume of deuterated DMSO was kept constant (1.5%) in all tested samples. Right before the experiments, the compound and protein were diluted in 1×PBS containing 0.1% deuterated dithiothreitol (DTT) to a total volume of 200 μL. Samples were diluted by 5% with D2O for magnetic field lock. Spectra were acquired for ligand only, protein only, and ligand+protein. […] STD experiments [Mayer et al 2001] were acquired with 160 scans, with protein irradiation applied for 3 s at 0 ppm and −20 ppm for the on and off resonance experiments, respectively. On and off resonance spectra were collected and stored separately. One-dimensional CPMG-R2 edited experiments [Hajduk et al 1997] were collected for samples with and without proteins using seven CPMG delays (0, 25, 50, 100, 300, 500, and 800 ms) with four scans per delay. Proton spectra used to measure DLB and chemical shift perturbations in the absence and presence of the proteins were recorded with 16 scans using a recycle delay of 3 s. […]

| SMILES | effect on all other PPIs [1] | tolerability, behavior and body mass [2] | binding to human SIN3B PAH2 by NMR (human SIN3B PAH2 domain) |
| --- | --- | --- | --- |
| CC(NC(=O)c1c(O)n2ccccc2nc1=O)c1ccccc1 (racemic) [E6] | unperturbed |  |  |
| C[C@@H](NC(=O)c1c(O)n2ccccc2nc1=O)c1ccccc1 [E6R, 4-hydroxy-2-oxo-N—((R)-1-phenylethyl)-3,4-dihydro-2H-pyrido[, 2-a]pyrimidine-3-carboxamide] |  | No abnormal behavior or significant body mass decrease (>5%); also recorded: well-tolerated | could bind; also recorded: virtually identical to those of yeast Sin3 PAH2 |

Reference: US20240299393A1, “SMALL MOLECULE DISRUPTORS OF PROTEIN INTERACTIONS IN HISTONE DEACETYLASE COMPLEXES” (Dana-Farber Cancer Institute, Inc., priority 2021, published 2024)
